# Source: patent US20100022415A1, “ACTIVE CARRIER, ITS PRODUCTION AND ITS USE” (AVICOR KET., priority 2006, published 2010)
# Tested on: streptavidin
# Assay: Affinity chromatography: elution of labeled streptavidin from biotinylated glass beads
# Assay type: binding
# Conditions: washing with solutions of increasing concentrations; absorbance of eluate (FIG. 5)
# Method: The biotinylated glass beads were added to 1 ml PBS, to which 50 μg of streptavidin labeled with Cy5 fluorescent dye was added (total dye: 0.3 OD640/ml). The resulting solution was stirred, then OD640 was measured again, the detected value was 0.003. […] Two chromatographic analyses were performed to verify the specific binding. During the first, 100 mg of the biotinylated glass beads was washed with biotin solutions with increasing concentrations, and in the second, the column containing biotinylated glass beads was washed with benzamidine solutions of increasing concentrations. The absorbance of the eluate was measured continuously (FIG. 5).
smiles,measurement,value
O=C(O)CCCC[C@@H]1SC[C@@H]2NC(=O)N[C@@H]21 [biotin],Elution of fluorescent labeled streptavidin from biotinylated glass beads,could be eluted only with the biotin solution
